Converted amounts (≈) assume the structure as drawn. The source made the active and inactive calls. The calls are words filed in the database; no cut-off is given here.

One assay relates to Saccharomyces cerevisiae. The assay can be described thus: Antifungal activity against Saccharomyces cerevisiae after 48 hrs by macro tube dilution method. The assay is classed as functional.
In another assay the test system is Aspergillus sp. The assay is described as follows: Antifungal activity against Aspergillus sp. after 48 hrs by macro tube dilution method. The assay is classed as functional.
In assay [1] the test system is Candida albicans. The assay can be described thus: Inhibition of chitin synthase in Candida albicans ATCC 90028 at 1.5 times MIC by liquid scintillation analyzer relative to nikkomycin.
In the next assay the test system is Candida parapsilosis. The assay is described as follows: Antifungal activity against Candida parapsilosis ATCC 22019 after 48 hrs by macro tube dilution method. The class given is functional. As to conditions: Lodderomyces parapsilosis, ATCC 22019, 48 h.
The species entered for a further assay is Rattus norvegicus. The assay can be described thus: Inhibition of lactate dehydrogenase in Wistar rat kidney at 1.5 times MIC relative to control.
The subject of assay [2] is Candida albicans. The assay can be described thus: Antifungal activity against Candida albicans ATCC 90028 after 48 hrs by macro tube dilution method. The class given is functional. Conditions: ATCC 90028, 48 h.
A further assay concerns Nakaseomyces glabratus. The assay is described as follows: Antifungal activity against Candida glabrata ATCC 3916 after 48 hrs by macro tube dilution method. The class given is functional. Conditions: ATCC 3916, 48 h.
The subject of a further assay is Pichia kudriavzevii. The assay is described as follows: Antifungal activity against Candida krusei ATCC 30068 after 48 hrs by macro tube dilution method. The class given is functional. Conditions: ATCC 30068, 48 h.
Assay [3] deals with Candida albicans. The assay can be described thus: Antifungal activity against Candida albicans ATCC 90028 assessed as inhibition of fungal ergosterol synthesis at 0.5 times MIC after 16 hrs by UV spectrophotometry. The assay is classed as functional, organism-based.
For assay [4], the system named is Candida albicans. The assay can be described thus: Antifungal activity against Candida albicans ATCC 90028 assessed as increase in 104 kDa fungal protein at 2 times MIC after 1 hr by electrophoresis-based microchip technology. The class given is functional, organism-based.
The subject of assay [5] is Candida albicans. The assay can be described thus: Antifungal activity against Candida albicans ATCC 90028 assessed as increase in 117 kDa fungal protein at 2 times MIC after 1 hr by electrophoresis-based microchip technology. The assay is classed as functional, organism-based.
Assay [6] deals with Candida albicans. The assay can be described thus: Antifungal activity against Candida albicans ATCC 90028 assessed as increase in 117 kDa fungal protein at 0.5 time MIC after 1 hr by electrophoresis-based microchip technology. The assay is classed as functional, organism-based.
The test system of assay [7] is Candida albicans. The assay can be described thus: Antifungal activity against Candida albicans ATCC 90028 assessed as increase in 147 kDa fungal protein at 2 times MIC after 1 hr by electrophoresis-based microchip technology. The class given is functional, organism-based.
The test system of assay [8] is Candida albicans. The assay can be described thus: Antifungal activity against Candida albicans ATCC 90028 assessed as increase in 124 kDa fungal protein at 0.5 time MIC after 1 hr by electrophoresis-based microchip technology. The class given is functional, organism-based.
Assay [9] relates to Candida albicans. The assay is described as follows: Antifungal activity against Candida albicans ATCC 90028 assessed as increase in 104 kDa fungal protein at 0.5 time MIC after 1 hr by electrophoresis-based microchip technology. The assay is classed as functional, organism-based.
Assay [10] deals with Candida albicans. The assay can be described thus: Antifungal activity against Candida albicans ATCC 90028 assessed as increase in 147 kDa fungal protein at 0.5 time MIC after 1 hr by electrophoresis-based microchip technology. The class given is functional, organism-based.
Assay [11] has as its system Candida albicans. The assay is described as follows: Antifungal activity against Candida albicans ATCC 90028 assessed as increase in 124 kDa fungal protein at 2 times MIC after 1 hr by electrophoresis-based microchip technology. The class given is functional, organism-based.
Assay [12] has as its system Candida albicans. The assay is described as follows: Antifungal activity against Candida albicans ATCC 90028 assessed as changes in fungal protein expression at 2 times MIC after 1 hr by electrophoresis-based microchip technology. The class given is functional, organism-based.
The subject of assay [13] is Candida albicans. The assay is described as follows: Antifungal activity against Candida albicans ATCC 90028 assessed as changes in fungal protein expression at 0.5 time MIC after 1 hr by electrophoresis-based microchip technology. The assay is classed as functional, organism-based.
Assay [14] concerns Candida albicans. The assay is described as follows: Antifungal activity against Candida albicans ATCC 90028 assessed as number of fungal cells with pseudohyphae out of 100 cells at 0.5 time MIC after 0 to 6 hrs by light microscopy. The assay is classed as functional.
For assay [15], the system named is Candida albicans. The assay is described as follows: Antifungal activity against Candida albicans ATCC 90028 assessed as number of fungal cells without pseudohyphae out of 100 cells at 0.5 time MIC after 0 to 6 hrs by light microscopy. The assay is classed as functional.

Regarding `O=C1/C(=C/c2ccccc2)CCCCCC1CN1CCCCC1` (configuration not stated), the MIC – broadly, the least concentration at which growth counts as inhibited – with Saccharomyces cerevisiae is 100 µg/mL (≈ 321 µM); against Aspergillus sp., 100 µg/mL (≈ 321 µM); against Candida parapsilosis, 200 µg/mL (≈ 642 µM); against Candida albicans [2] it was 100 µg/mL (≈ 321 µM); against Nakaseomyces glabratus, over 200 µg/mL; with Pichia kudriavzevii it was 200 µg/mL (≈ 642 µM). In addition, the inhibition – broadly, the change of the read-out against control, counted positive when it falls – in the assay on Candida albicans [1] is 50%; in the assay filed under Rattus norvegicus, 30%.
With `O=C1/C(=C/c2ccccc2)CCCCC1CN1CCOCC1` (configuration not stated), the MIC against Saccharomyces cerevisiae is 50 µg/mL (≈ 167 µM); against Aspergillus sp., 200 µg/mL (≈ 668 µM); in the assay on Candida parapsilosis, 100 µg/mL (≈ 334 µM); with Candida albicans [2] it was 25 µg/mL (≈ 83.5 µM); against Nakaseomyces glabratus, over 200 µg/mL; in the assay on Pichia kudriavzevii, 100 µg/mL (≈ 334 µM). In addition, the inhibition in the assay on Candida albicans [1] worked out at 24%. The inhibition result in the assay listed under Rattus norvegicus was “inactive”. For the same compound, the result in the assay with Candida albicans [3] was inactive.
For `O=C1/C(=C/c2ccc3c(c2)OCO3)CCC1CN1CCOCC1` (configuration not stated), the MIC against Saccharomyces cerevisiae is 3.12 µg/mL (≈ 9.91 µM); against Aspergillus sp., over 200 µg/mL; against Candida parapsilosis, 6.25 µg/mL (≈ 19.8 µM); in the assay with Candida albicans [2], 1.56 µg/mL (≈ 4.95 µM); against Nakaseomyces glabratus, 3.12 µg/mL (≈ 9.91 µM); with Pichia kudriavzevii, 6.25 µg/mL (≈ 19.8 µM). In the assay on Candida albicans [3], the outcome was inactive.
As for `COc1ccc(/C=C2\CCC(CN3CCCCC3)C2=O)cc1` (configuration not stated), the MIC in the assay on Saccharomyces cerevisiae is 3.12 µg/mL (≈ 10.4 µM); in the assay with Aspergillus sp., 100 µg/mL (≈ 334 µM); with Candida parapsilosis, 6.25 µg/mL (≈ 20.9 µM); against Candida albicans [2] it was 12.5 µg/mL (≈ 41.7 µM); with Nakaseomyces glabratus, 6.25 µg/mL (≈ 20.9 µM); against Pichia kudriavzevii, 12.5 µg/mL (≈ 41.7 µM). The outcome in the assay with Candida albicans [4], with Candida albicans [5], in the assay with Candida albicans [6], in the assay with Candida albicans [7], in the assay on Candida albicans [8] and in the assay on Candida albicans [9] was Active. Further, the result in the assay with Candida albicans [10] and in the assay with Candida albicans [11] was Active.
Take `COc1ccc(/C=C2\CC[C@@H](CN3CCCCC3)[C@@H]2O)cc1` (relative stereo): the MIC was 100 µg/mL (≈ 332 µM) against Saccharomyces cerevisiae; 200 µg/mL (≈ 664 µM) in the assay on Aspergillus sp.; over 200 µg/mL against Candida parapsilosis; 100 µg/mL (≈ 332 µM) with Candida albicans [2]; over 200 µg/mL in the assay on Nakaseomyces glabratus; 100 µg/mL (≈ 332 µM) with Pichia kudriavzevii. The result with Candida albicans [4], in the assay with Candida albicans [7] and in the assay with Candida albicans [10] was inactive. Further, the result with Candida albicans [5], in the assay with Candida albicans [6], in the assay with Candida albicans [8], with Candida albicans [9] and in the assay on Candida albicans [11] was Active.
For `O=C1/C(=C/c2ccccc2)CCC1CN1CCNCC1` (configuration not stated), the MIC amounted to 1.56 µg/mL (≈ 5.77 µM) against Saccharomyces cerevisiae; 100 µg/mL (≈ 370 µM) with Aspergillus sp.; 6.25 µg/mL (≈ 23.1 µM) in the assay on Candida parapsilosis; 6.25 µg/mL (≈ 23.1 µM) in the assay on Candida albicans [2]; 12.5 µg/mL (≈ 46.2 µM) in the assay with Nakaseomyces glabratus; 12.5 µg/mL (≈ 46.2 µM) with Pichia kudriavzevii. Further, the inhibition result with Candida albicans [1] was “inactive”. The result with Candida albicans [12] and with Candida albicans [13] was inactive.
As for `C[C@@H]1[C@H](O)[C@@H](C)/C=C/C=C/C=C/C=C/C=C/C=C/C=C/[C@H](O[C@@H]2O[C@H](C)[C@@H](O)[C@H](N)[C@@H]2O)C[C@@H]2O[C@](O)(C[C@@H](O)C[C@@H](O)[C@H](O)CC[C@@H](O)C[C@@H](O)CC(=O)O[C@H]1C)C[C@H](O)[C@H]2C(=O)O` [AMPHOTERICIN B], the Activity in the assay on Candida albicans [14] came out at 18; in the assay with Candida albicans [15], 77.
Regarding `O=C1/C(=C/c2ccccc2)CCC1CN1CCc2ccccc2C1` (configuration not stated), the MIC in the assay on Saccharomyces cerevisiae turned out to be 1.56 µg/mL (≈ 4.91 µM); in the assay on Aspergillus sp., 200 µg/mL (≈ 630 µM); with Candida parapsilosis, 12.5 µg/mL (≈ 39.4 µM); against Candida albicans [2], 12.5 µg/mL (≈ 39.4 µM); with Nakaseomyces glabratus, 6.25 µg/mL (≈ 19.7 µM); in the assay on Pichia kudriavzevii it was 12.5 µg/mL (≈ 39.4 µM). Moreover, the result with Candida albicans [4], with Candida albicans [5], with Candida albicans [6], with Candida albicans [7], with Candida albicans [8] and in the assay on Candida albicans [9] was Active. Besides, the result with Candida albicans [10] and in the assay on Candida albicans [11] was Active.

Values taken from ChEMBL document CHEMBL1137749, “Antifungal unsaturated cyclic Mannich ketones and amino alcohols: study of mechanism of action” (2009).
